IC50 data for 15 compounds are collected here from ChEMBL document CHEMBL4177663, “Discovery and structure-activity relationship study of 1,3,6-trisubstituted 1,4-diazepane-7-ones as novel human kallikrein 7 inhibitors” (Bioorg Med Chem Lett, 2017).

A value given as a limit tells only on which side of the number the result lay.

One experiment addresses Trypsin (Homo sapiens, UniProt P07477+P07478+P35030). Kind of experiment: Inhibition of human trypsin preincubated for 10 mins followed by Boc-Gln-Ala-Arg-MCA peptide substrate addition measured after 30 mins by fluorescence analysis. The class given is protein assay.
On to `COc1ccc(Cl)cc1C[C@@H]1CN/C(=N\N(C)C)CN(CC(=O)Nc2cccc(S(C)(=O)=O)c2)C1=O`, for which the IC50 is > 30 µM.
On the same count and under the same terms, the result for `COc1ccc(Cl)cc1C[C@@H]1CN/C(=N\N(C)C)CN(CC(=O)Nc2cccc(C(=O)O)c2)C1=O.Cl` reads > 30 µM.

For the next experiment, the target named is T1, Kallikrein-5 (Homo sapiens, UniProt Q9Y337).
T1 sequence (Q9Y337 whole entry): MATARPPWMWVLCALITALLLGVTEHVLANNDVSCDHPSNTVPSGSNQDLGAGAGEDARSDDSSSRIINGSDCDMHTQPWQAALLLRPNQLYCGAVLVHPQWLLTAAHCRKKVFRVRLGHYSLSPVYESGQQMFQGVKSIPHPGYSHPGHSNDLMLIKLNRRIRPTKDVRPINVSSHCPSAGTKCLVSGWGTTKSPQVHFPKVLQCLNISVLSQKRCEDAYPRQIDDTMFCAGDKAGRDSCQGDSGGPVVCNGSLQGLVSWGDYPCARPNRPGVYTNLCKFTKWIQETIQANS
Kind of experiment: Inhibition of recombinant human C-terminal 10-His tagged KLK5 preincubated for 10 mins followed by Boc-Val-Pro-Arg-MCA peptide substrate addition measured after 30 mins by fluorescence analysis.
As for `COc1ccc(Cl)cc1C[C@@H]1CN/C(=N\N(C)C)CN(CC(=O)Nc2cccc(S(C)(=O)=O)c2)C1=O`, the half-inhibitory concentration (IC50) is > 30 µM.
As to `COc1ccc(Cl)cc1C[C@@H]1CN/C(=N\N(C)C)CN(CC(=O)Nc2cccc(C(=O)O)c2)C1=O.Cl`, the IC50 is > 30 µM.

Test system in a further experiment: not listed separately
Kind of experiment: Inhibition of human chymotrypsin preincubated for 10 mins followed by Suc-Ala-Ala-Pro-Phe-MCA peptide substrate addition measured after 30 mins by fluorescence analysis.
In the case of `COc1ccc(Cl)cc1C[C@@H]1CN/C(=N\N(C)C)CN(CC(=O)Nc2cccc(S(C)(=O)=O)c2)C1=O`, it took 24 µM to reach half-maximal inhibition (IC50).
With `COc1ccc(Cl)cc1C[C@@H]1CN/C(=N\N(C)C)CN(CC(=O)Nc2cccc(C(=O)O)c2)C1=O.Cl`, the midpoint of inhibition, the IC50, lay at 30 µM.

The target of another experiment is Kallikrein-7 (Homo sapiens, UniProt P49862). Kind of experiment: Inhibition of thermolysin activated recombinant human C-terminal 10-His tagged KLK7 preincubated for 10 mins followed by MOCAc-Arg-Pro-Lys-Pro-Val-Glu-Nva-Trp-Arg-Lys(Dnp)-NH2 peptide substrate addition measured after 30 mins by fluorescence analysis.
Kallikrein-7, sequence (P49862 whole entry): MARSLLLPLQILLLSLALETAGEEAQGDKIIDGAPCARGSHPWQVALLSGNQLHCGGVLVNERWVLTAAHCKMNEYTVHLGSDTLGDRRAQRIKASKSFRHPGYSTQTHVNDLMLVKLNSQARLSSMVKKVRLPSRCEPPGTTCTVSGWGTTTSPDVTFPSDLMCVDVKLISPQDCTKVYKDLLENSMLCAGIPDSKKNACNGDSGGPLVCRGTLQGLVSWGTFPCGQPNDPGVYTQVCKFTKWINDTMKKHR
For the compound `CCO/N=C1/CN(CC(=O)Nc2cccc(C(=O)O)c2)C(=O)[C@H](Cc2cc(Cl)ccc2OC)CN1`, the IC50 came out at 13 µM.
In the case of `COc1ccc(Cl)cc1C[C@H]1CN/C(=N\Oc2cc(F)cc(F)c2)CN(CC(=O)Nc2ccc(O)c(C(=O)O)c2)C1=O`, the IC50 was > 30 µM.
Same read-out and setting: the result for `COc1ccc(Cl)cc1C[C@@H]1CN/C(=N\N(C)C)CN(CC(=O)Nc2cccc(S(C)(=O)=O)c2)C1=O` reads 0.82 µM; that for `COc1ccc(Cl)cc1C[C@@H]1CN/C(=N\N(C)C)CN(CC(=O)Nc2ccccc2C(=O)O)C1=O`, > 30 µM.
On the same count and under the same terms, the result for `COc1ccc(Cl)cc1C[C@@H]1CN/C(=N\Oc2cc(F)cc(F)c2)CN(CC(=O)Nc2ccc(O)c(C(=O)O)c2)C1=O` reads 5.8 µM.
As for `COc1ccc(Cl)cc1C[C@@H]1CN/C(=N\Oc2c(F)cccc2F)CN(CC(=O)Nc2cccc(C(=O)O)c2)C1=O`, the IC50 is 5.4 µM.
Same read-out and setting: the result for `COc1ccc(Cl)cc1C[C@@H]1CN/C(=N\N(C)C)CN(CC(=O)Nc2ccc(C(=O)O)cc2)C1=O` reads 30 µM; that for `COc1ccc(Cl)cc1C[C@@H]1CN/C(=N\N(C)C)CN(CC(=O)Nc2ccccc2)C1=O`, 4.5 µM.
As for `COc1ccc(Cl)cc1C[C@@H]1CN/C(=N\N(C)C)CN(CC(=O)Nc2ccccn2)C1=O`, the IC50 was 16 µM.
With `COc1ccc(Cl)cc1C[C@@H]1CN/C(=N\N(C)C)CN(CC(=O)Nc2cccc(C(=O)O)c2)C1=O.Cl`, the IC50 came out at 1.9 µM.
Still for that read-out and setting: the result for `COc1ccc(Cl)cc1C[C@@H]1CN/C(=N\O)CN(CC(=O)Nc2cccc(C(=O)O)c2)C1=O` reads > 30 µM; that for `COc1ccc(Cl)cc1C[C@@H]1CNC(=O)CN(CC(=O)Nc2ccc(O)c(C(=O)O)c2)C1=O`, > 30 µM.
Still for that read-out and setting: the result for `CO/N=C1/CN(CC(=O)Nc2cccc(C(=O)O)c2)C(=O)[C@H](Cc2cc(Cl)ccc2OC)CN1` reads 14 µM; that for `COc1ccc(Cl)cc1C[C@@H]1CN/C(=N\N(C)C)CN(CC(=O)Nc2cccnc2)C1=O`, 9 µM.
The same measure, in the same setting: the result for `COc1ccc(Cl)cc1C[C@@H]1CN/C(=N\OCC(C)C)CN(CC(=O)Nc2cccc(C(=O)O)c2)C1=O` reads > 30 µM.
